Tests used:
[1] = molecular target: T1, rA1 adenosine receptor (Rattus norvegicus, UniProt P25099); experiment: Adenosine receptor selectivity, rA1; type: binding; conditions: read-out: rA1 Ki ± SEM
T1 sequence (P25099 1-326): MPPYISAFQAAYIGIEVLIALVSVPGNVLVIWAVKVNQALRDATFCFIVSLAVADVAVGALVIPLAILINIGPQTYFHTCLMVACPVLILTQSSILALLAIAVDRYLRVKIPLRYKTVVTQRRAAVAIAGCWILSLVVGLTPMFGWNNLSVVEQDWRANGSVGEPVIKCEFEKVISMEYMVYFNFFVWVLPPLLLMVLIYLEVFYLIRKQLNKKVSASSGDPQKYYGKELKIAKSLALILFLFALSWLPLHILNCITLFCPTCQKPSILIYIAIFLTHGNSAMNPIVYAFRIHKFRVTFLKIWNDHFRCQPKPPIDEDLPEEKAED
Description: (§1) The selectivity of these substances at various adenosine receptors is illustrated as follows: […]

[2] = molecular target: rA2A adenosine receptor (Rattus norvegicus, UniProt P30543); experiment: Adenosine receptor selectivity, rA2A; type: binding; conditions: read-out: rA2A Ki ± SEM
Chain of rA2A adenosine receptor (P30543 whole entry): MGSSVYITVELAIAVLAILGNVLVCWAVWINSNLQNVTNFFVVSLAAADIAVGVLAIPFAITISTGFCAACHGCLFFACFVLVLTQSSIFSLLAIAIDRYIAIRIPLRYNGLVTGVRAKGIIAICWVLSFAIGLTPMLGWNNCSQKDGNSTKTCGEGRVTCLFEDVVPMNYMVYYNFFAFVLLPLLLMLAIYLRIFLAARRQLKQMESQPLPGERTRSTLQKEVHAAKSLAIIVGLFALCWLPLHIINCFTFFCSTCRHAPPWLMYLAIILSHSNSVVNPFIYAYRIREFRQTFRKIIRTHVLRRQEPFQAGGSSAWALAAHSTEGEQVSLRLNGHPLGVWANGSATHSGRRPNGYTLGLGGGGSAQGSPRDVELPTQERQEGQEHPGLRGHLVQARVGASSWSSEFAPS
Description: as §1

[3] = molecular target: T2, hA2B adenosine receptor (Homo sapiens, UniProt P29275); experiment: Adenosine receptor selectivity, hA2B; type: binding; conditions: read-out: hA2B IC50 ± SEM
T2 sequence (P29275 1-332): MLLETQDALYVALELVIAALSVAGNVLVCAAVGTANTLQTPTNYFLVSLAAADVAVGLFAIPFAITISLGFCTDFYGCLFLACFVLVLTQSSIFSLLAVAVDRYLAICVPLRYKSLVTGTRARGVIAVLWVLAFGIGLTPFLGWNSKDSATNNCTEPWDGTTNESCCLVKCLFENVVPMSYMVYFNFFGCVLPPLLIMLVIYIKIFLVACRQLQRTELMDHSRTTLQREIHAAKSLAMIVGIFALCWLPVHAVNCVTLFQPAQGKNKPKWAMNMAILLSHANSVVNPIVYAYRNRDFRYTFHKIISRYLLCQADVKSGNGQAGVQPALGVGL
Description: as §1

[4] = molecular target: T3, hA3 adenosine receptor (Homo sapiens, UniProt P0DMS8); experiment: Adenosine receptor selectivity, hA3; type: binding; conditions: read-out: hA3 Ki ± SEM
T3 sequence (P0DMS8 1-318): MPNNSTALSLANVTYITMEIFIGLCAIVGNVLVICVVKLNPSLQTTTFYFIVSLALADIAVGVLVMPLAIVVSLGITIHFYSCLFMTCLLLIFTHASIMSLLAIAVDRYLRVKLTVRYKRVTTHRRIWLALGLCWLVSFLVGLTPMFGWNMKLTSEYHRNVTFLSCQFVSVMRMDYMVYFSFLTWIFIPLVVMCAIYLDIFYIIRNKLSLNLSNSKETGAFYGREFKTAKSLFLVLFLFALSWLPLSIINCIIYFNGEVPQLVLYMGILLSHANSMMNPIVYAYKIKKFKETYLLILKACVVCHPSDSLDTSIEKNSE
Description: as §1

[5] = tested on: collagen-induced arthritis; experiment: Collagen induced arthritis (CIA) in mice; type: in vivo; conditions: DBA/1 mice, 30 mg/kg i.p. once daily
Experimental: Control mice were treated with saline (circles). Data are the mean arthritis paw thickness, assessed using a calliper in the days following primary immunization and boost.
After the end of treatment, the inhibitory effect was maintained for a period of 2-3 days after which signs began to re-emerge.
Treatment of rheumatoid arthritis using Collagen Induced Arthritis as a model Collagen-induced arthritis studies. CIA in DBA/1 mice was induced by injecting DBA/1 mice with bovine type Il collagen (CII) emulsified in CFA1 followed by boosting 21 days later with CII emulsified in incomplete Freund's adjuvant (IFA). […] 30 mg/kg was delivered by i.p. injection once daily, starting following the development of clinical arthritis in treatment experiments. Animals were monitored daily following boost of arthritis, following the emergence of clear signs of disease observed on two consecutive days, animals were allocated randomly to treatment groups. Signs monitored included weight loss, paw thickness, and observed clinical score. Scoring is according to the presence of inflamed joints: 1 point for an inflamed digit, 1 point for a inflamed metatarsus, and 1 point for an inflamed joint above the metatarsus.

[6] = Pharmacokinetics of Compound 1 in mice, oral or intravenous; type: in vivo; conditions: C57BLK6 mice
Experimental: The cellulose formulation was administered to C57BLK6 mice orally. The serum suspension/solution was administered intravenously. […] The results are recorded in FIG. 5.

[7] = tested on: experimental autoimmune encephalomyelitis; experiment: Experimental autoimmune encephalomyelitis (EAE) in mice; type: in vivo; conditions: C57B/6 mice, 15 mg/kg i.p. once daily from EAE induction
Experimental: Control mice were treated with PEG/saline (triangles). […] Data are the mean plotted with the standard error of the mean.
EAE is a widely used animal model for multiple sclerosis (MS).
EAE was induced in C57B/6 mice by subcutaneous immunization with 100 ug/mouse myelin oligodendrocyte glycoprotein (MOG) peptide 35-55 emulsified in compete Freund's adjuvant (CFA) containing 2 mg/ml heat-killed mycobacterium tuberculosis H37Ra (Hooke Laboratories). As part of the induction protocol, mice were also injected intraperitoneally on the day of immunization and 48 hours later with 0.1 ml of 4 [mu]g/mL Bordetella pertusis toxin. Severity of EAE was determined daily based on a standard scoring system: 1, tail weakness or paralysis; 2, hind leg weakness; 3, hind limb paralysis; 4, forelimb weakness; and 5, moribund animals or death.

Structure (SMILES)	Ki [1]	Ki [2]	IC50 [3]	Ki [4]	other results
CCCn1c(=O)[nH]c2nc(-c3ccc(S(=O)(=O)N4CCN(Cc5cccc(Cl)c5)CC4)cc3)[nH]c2c1=O [Compound 4]	178 ± 38 nM	799 ± 358 nM	2 ± 0.1 nM	–	–
CCCn1c(=O)[nH]c2nc(-c3ccc(S(=O)(=O)N4CCN(Cc5ccc(C(F)(F)F)cc5)CC4)cc3)[nH]c2c1=O [Compound 2]	463 ± 122 nM	1540 ± 271 nM	2 ± 1 nM	–	–
CCCn1c(=O)[nH]c2nc(-c3ccc(S(=O)(=O)N4CCN(Cc5ccc(OC)cc5)CC4)cc3)[nH]c2c1=O [Propyl-/p-Methoxybenzyl-]	84 ± 19 nM	1020 ± 561 nM	16 ± 6 nM	–	–
CCn1c(=O)[nH]c2nc(-c3ccc(S(=O)(=O)N4CCN(Cc5cccc(C(F)(F)F)c5)CC4)cc3)[nH]c2c1=O [Compound 3]	509 ± 155 nM	499 ± 129 nM	2 ± 1 nM	–	–
CCn1c(=O)[nH]c2nc(-c3ccc(S(=O)(=O)N4CCN(Cc5ccc(OC)cc5)CC4)cc3)[nH]c2c1=O [Ethyl-/p-Methoxybenzyl-]	129 ± 41 nM	630 ± 305 nM	5 ± 1 nM	< 10000 nM	–
CCCn1c(=O)[nH]c2nc(-c3ccc(S(=O)(=O)N4CCN(Cc5cccc(F)c5)CC4)cc3)[nH]c2c1=O [Compound 5]	111 ± 43 nM	782 ± 236 nM	3 ± 0.2 nM	–	–
CCCn1c(=O)[nH]c2nc(-c3ccc(S(=O)(=O)N4CCN(Cc5ccccc5)CC4)cc3)[nH]c2c1=O [Propyl-/Benzyl-]	151 ± 38 nM	848 ± 433 nM	10 ± 2 nM	> 10000 nM	–
CCn1c(=O)[nH]c2nc(-c3ccc(S(=O)(=O)N4CCN(Cc5ccc6c(c5)OCO6)CC4)cc3)[nH]c2c1=O [Ethyl-/3,4-(Methylen-dioxy)benzyl-]	54 ± 5 nM	332 ± 129 nM	5 ± 2 nM	< 10000 nM	–
CCCn1c(=O)[nH]c2nc(-c3ccc(S(=O)(=O)N4CCN(Cc5ccc(Cl)cc5)CC4)cc3)[nH]c2c1=O [Propyl-/p-Chlorbenzyl-]	386 ± 98 nM	1730 ± 790 nM	4 ± 1 nM	–	–
CCCn1c(=O)[nH]c2nc(-c3ccc(S(=O)(=O)N4CCN(c5ccc(Cl)cc5)CC4)cc3)[nH]c2c1=O [Compound 1]	–	–	1 ± 0.4 nM	> 10000 nM	effect on existing inflammation in CIA ([5]; established arthritis): able to reduce an existing inflammation to a normal state; severity of CIA (paw swelling, erythema, joint rigidity; mean visual arthritis score) ([5]; started after development of clinical arthritis): significant reductions in the severity of CIA; detectability in blood by route ([6]; oral or intravenous route): detectable only via injection; oral availability ([6]; oral, 1% methyl cellulose in water, 0.2% Tween 80): not orally available; half-life ([6]; whole blood, iv, i.v. application in mouse serum, read-out: terminal half life): 1 to 2 h; onset of EAE compared to control mice ([7]; 15 mg/kg): delayed onset such that there were no signs of EAE; onset of EAE compared to control mice ([7]; listed as compound 1, 15 mg/kg): a delay in the onset of EAE
CCCn1c(=O)[nH]c2nc(-c3ccc(S(=O)(=O)N4CCN(Cc5cccc(C(F)(F)F)c5)CC4)cc3)[nH]c2c1=O [Propyl-/m-Trifluormethylbenzyl-]	273 ± 47 nM	1700 ± 217 nM	4 ± 0.2 nM	–	–
CCCn1c(=O)[nH]c2nc(-c3ccc(S(=O)(=O)N4CCN(CCc5ccccc5)CC4)cc3)[nH]c2c1=O [Propyl-/2-(Phenyl)ethyl-]	–	154 ± 44.9 nM	11 ± 3 nM	< 10000 nM	–
CCCn1c(=O)[nH]c2nc(-c3ccc(S(=O)(=O)N4CCN(Cc5ccc6c(c5)OCO6)CC4)cc3)[nH]c2c1=O [Propyl-/3,4-(Methylen-dioxy)benzyl-]	79 ± 5 nM	590 ± 29 nM	24 ± 10 nM	4150 nM	–
CCn1c(=O)[nH]c2nc(-c3ccc(S(=O)(=O)N4CCN(c5ccccc5)CC4)cc3)[nH]c2c1=O [Ethyl-/Phenyl-]	142 ± 6 nM	514 ± 41 nM	4 ± 3 nM	> 10000 nM	–
